According to patent publication US20250263408A1 (Uniquest Pty Ltd, priority 2022, published 2025):

Assays:
[1] = Brain Penetration Assays: Mouse Pharmacokinetics (plasma and brain levels after oral dose); format: in vivo; conditions: male, CD-1, mouse, mice, 1 hour post oral dose of 10 mg/kg; for Kp at 1 h: brain / plasma (unbound), read-out: Kpu,u (ratio of unbound brain levels to unbound plasma levels)
Method: Male CD-1 mice (6-8 weeks of age, 3 animals per timepoint) were dosed via oral gavage (10 mL/kg) with compound (10 mg/kg, 0.5% methylcellulose in water). Blood samples were taken either non-terminal via saphenous vein or terminal via cardiac puncture and stored in 1.5 mL Eppendorf tubes containing 0.010 mL of 10% K2EDTA, mixed gently and placed in ice before centrifugation. Blood was centrifuged at 10,000 r.p.m. for 2 minutes, plasma harvested and stored at −80° C. Following blood collection at the terminal time points, animals were sacrificed with C02 and brains quickly removed, rinsed with cold saline (0.9% NaCl), surface vasculature ruptured, blotted with dry gauze or tissue and weighed. The whole brain was homogenized in 1.0 mL ice cold phosphate-buffered saline, pH 7.4 and the homogenates stored at −80° C. Compound concentrations were quantified in plasma and brain tissue by LC-MS/MS using a partially validated bioanalytical method.
(§1) The Rapid Equilibrium Dialysis (RED) method was employed with plasma (200 μL, BioIVT, USA) in phosphate buffered saline (PBS, 350 μL) incubated with compound (1 μM) at 37° C. for 5 hours shaking at 450 r.p.m. Acetonitrile (3 volumes) was added and the sample centrifuged for 5 minutes and 1050 r.p.m. then for 15 minutes at 4000 r.p.m. Compound concentrations were quantified via LC-MS/MS from supernatant and free drug was calculated.
as §1, with “RED” for “Rapid Equilibrium Dialysis (RED)”, “mouse brain homogenate (10% w/v prepared in-house))” for “plasma (200 μL, BioIVT, USA) in phosphate buffered saline (PBS, 350 μL)”, “14” for “15”

[2] = test system: Ba/F3-WT (wild type) cells; experiment: Ba/F3 Proliferation Assay, Ba/F3-WT (wild type) cells with mIL-3 (Resazurin); format: cell-based; conditions: Mus musculus, BaF3, 48 h, Ba/F3-WT cells +mIL-3, 48-hour incubation
Ba/F3-Syk cells = target: T1, Ba/F3-Syk cells (Homo sapiens, UniProt P43405); experiment: Ba/F3 Proliferation Assay, Ba/F3-Syk cells (Resazurin); format: cell-based; conditions: 48-hour incubation
T1 construct: fused on or other part: Possible but unprinted fusion partner: TEL (ETV6), the usual partner for Ba/F3 lines transformed by Syk; Nothing on a partner is printed

Syk = target: T2, Syk (Homo sapiens, UniProt P43405); experiment: Syk Biochemical Assay (ADP-Glo luminescence); conditions: ATP 40 μM final, 60 minutes, read-out: SYK Biochem IC50
T2 construct: purchased Promega

MDR1 (Pgp) = experiment: Permeability Assay, bi-directional flux in MDCKII-MDR1 cells; format: in vitro ADME, canine; conditions: dog; for Papp at 2 h, 10 PM: MDCK-MDR1, 2 hours at 37° C., concentration printed as 10 PM; for efflux ratio at 2 h, 10 PM: MDCK-MDR1, ratio >2 indicates the compound is effluxed, read-out: efflux ratio (PappB-A/PappA-B)
Method: The assay was performed using Charles River/Agilux default assay conditions and default acetonitrile extraction and bioanalytical conditions. The assay was performed using MDCKII-MDR1 (Pgp) cells (canine MDCK stably transfected with MDR1). Bi-directional (A-B and B-A) flux measurements were carried out in triplicate aliquots from duplicate wells. The compounds were incubated for 2 hours at 37° C. at a concentration of 10 PM. The efflux ratio is the ratio of PappB-A/PappA-B, and a ratio >2 indicates the compound is effluxed.

| concentration at 1 h ([1]; brain (free, unbound)) | Kp at 1 h [1] | EC50 [2] | EC50 (Ba/F3-Syk cells) | IC50 (Syk) | Papp at 2 h, 10 PM (MDR1 (Pgp)) | efflux ratio at 2 h, 10 PM (MDR1 (Pgp)) | SMILES |
| --- | --- | --- | --- | --- | --- | --- | --- |
| > 25 nM | 0.1 to 0.2 | 2340 nM | 12.5 nM | 12.2 nM | > 20 ×10⁻⁶ cm/s | ≤ 1 | CC1(C)CNC[C@@H](COc2nc(-c3cnn(C(C)(C)C)c3)cc3ncccc23)O1 [Compound 2.42, 7-(1-tert-butyl-1-pyrazol-4-yl)-5-{[(2S)-6,6-dimethylmorpholin-2-yl]methoxy}-1,6-naphthyridine] |
|  | 0.1 to 0.2 | 3300 nM | 11.4 nM | 14.1 nM | 15 to 20 ×10⁻⁶ cm/s | ≤ 1 | CC(C)n1ccc(-c2cc3ncccc3c(OC[C@@H]3CNCC(C)(C)O3)n2)c1 [Compound 6.9, 5-{[(2S)-6,6-dimethylmorpholin-2-yl]methoxy}-7-[1-(propan-2-yl)-1H-pyrrol-3-yl]-1,6-naphthyridine] |
|  | 0.1 to 0.2 | 2550 nM | 35.6 nM | 16 nM | > 20 ×10⁻⁶ cm/s | 1 to 2 | CC(C)n1ccc(-c2cc3ncccc3c(OC[C@@H]3CNCCO3)n2)c1 [Compound 6.2, 5-{[(2S)-morpholin-2-yl]methoxy}-7-[1-(propan-2-yl)-1H-pyrrol-3-yl]-1,6-naphthyridine] |
|  | 0.1 to 0.2 | 2660 nM | 78.2 nM | 48.1 nM | 15 to 20 ×10⁻⁶ cm/s | ≤ 1 | Cn1ccc(-c2cc(OC[C@@H]3CNCCO3)c3cccnc3c2)c1 [Compound 3.1, 7-(1-methyl-1H-pyrrol-3-yl)-5{-[(2S)-morpholin-2-yl]methoxy}quinoline] |
